Biological target: T1, 3-mercaptopyruvate sulfurtransferase (3-MST) (Homo sapiens, UniProt P25325)
T1 sequence (P25325 2-297): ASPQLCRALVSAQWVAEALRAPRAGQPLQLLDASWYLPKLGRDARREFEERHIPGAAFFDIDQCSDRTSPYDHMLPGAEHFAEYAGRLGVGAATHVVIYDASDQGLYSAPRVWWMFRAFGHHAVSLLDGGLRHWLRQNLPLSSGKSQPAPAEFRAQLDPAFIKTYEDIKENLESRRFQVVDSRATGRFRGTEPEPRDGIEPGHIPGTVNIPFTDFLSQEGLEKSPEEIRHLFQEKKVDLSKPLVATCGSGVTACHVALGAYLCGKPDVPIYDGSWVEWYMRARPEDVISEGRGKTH
Test: biochemical 3-MST inhibition assay, concentration-response

Work on `COc1cc2cc(Oc3ccc4ccc(=O)oc4c3)c(=O)oc2cc1O` [compound 5, Daphnoretin] yielded an IC50 of 9.59 ± 1.22 µM.

From publication PMC13050340 (Journal of Computer-Aided Molecular Design, 2026)
